Consider eight compounds from patent US5395841A, “4-benzylpiperidines for treating phychosis” (Ferrer Internacional, S.A., priority 1992, dated 1995).

SMILES strings stand for the structures. Structures can show the parent of a compound that is named as a salt.

Sequence of sigma-receptor (Q60492 whole entry): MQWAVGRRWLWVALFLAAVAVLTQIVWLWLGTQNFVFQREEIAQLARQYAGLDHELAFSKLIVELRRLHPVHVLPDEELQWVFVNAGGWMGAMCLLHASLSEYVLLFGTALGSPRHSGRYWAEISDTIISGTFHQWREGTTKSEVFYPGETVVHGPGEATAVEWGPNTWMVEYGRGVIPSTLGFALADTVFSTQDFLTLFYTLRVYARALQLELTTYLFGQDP

This assay has as its target sigma-receptor (Cavia porcellus, UniProt Q60492). Description: Sigma-receptor binding ([3H]3-PPP displacement, membranes of guinea pig total brain). The following applies: 2 nM (+)[3H]3-PPP, guinea pig total brain membrane, 90 min at 25° C., pH 8.5 TRIS.HCl, eleven concentrations; read-out: IC50 (inhibitory concentration 50%).
In the case of `CCCN1CCC(Cc2ccc(F)cc2)CC1` [Example 1, 4-p-Fluorobenzyl-1-propylpiperidine hydrochloride], the IC50 worked out at 2.95 nM. The figure for `OC(CCCN1CCC(Cc2ccccc2)CC1)c1ccc(F)cc1` (centres unmarked) [Example 6, 4-Benzyl-1-(4-hydroxi-4-p-fluorophenyl)butylpiperidine hydrochloride] is 1.49 nM. Consider `O=C(CCCN1CCC(Cc2ccc(F)cc2)CC1)c1ccc(F)cc1` [Example 5, 4-p-Fluorobenzyl-1-(4-p-fluorophenyl-4-oxo)butylpiperidine hydrochloride], for which the IC50 was 2.4 nM. Consider `Fc1ccc(CC2CCN(CCCC(c3ccc(F)cc3)c3ccc(F)cc3)CC2)cc1` [Example 9, 4-(p-Fluorobenzyl)-1-[4,4-bis(p-fluorophenyl)butyl]piperidine tribenzoate], for which the IC50 was 72 nM. In the case of `OC(CCCN1CCC(Cc2ccc(F)cc2)CC1)c1ccc(F)cc1` (centres unmarked) [Example 7, 4-(p-Fluorobenzyl)-1-(4-fluorophenyl-4-hydroxy)butylpiperidine hydrochloride], the IC50 is 8.8 nM.

Turning to `O=C1CC2(CCCC2)CC(=O)N1CCCCN1CCC(Cc2ccc(F)cc2)CC1` [Example 10, 8-[4-[4-(p-Fluorobenzyl)-1-piperidinyl]butyl]-8-azaspiro[4,5] decane-7,9-dione hydrochloride], the IC50 amounted to 1.89 nM.

Turning to `Fc1ccc(CC2CCN(CCCOc3ccc(F)cc3)CC2)cc1` [Example 8, 4-(p-Fluorobenzyl)-1-[3-(p-fluorophenoxy)propyl]piperidine dibenzoate], the IC50 is 4.5 nM. Turning to `Fc1ccc(CC2CCN(CCCOc3ccc(F)cc3)CC2)cc1` [Example 11, 4-(p-Fluorobenzyl)-1-[3-(p-fluorophenoxy)propyl]piperidine hydrochloride], the IC50 stood at 4.2 nM.
